Data as given in ChEMBL document CHEMBL1201862, “PubChem BioAssay data set” (2004).
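In this assay, cells in 96-well plates receive the compound at five concentrations for 48 hours. Endpoints are linearly interpolated between the surrounding concentrations. Abbreviation: GI50, concentration required for 50% inhibition of growth.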 Active and inactive are the calls of the source. Cut-off read from the data, not from the text of the source: active = GI50 up to about 1.1 µM and inactive = higher.

How the values were obtained:
Experiment in all cases: inhibition of tumour cell growth, NCI panel, 48 h
DMS-114 = system: DMS-114
DMS-273 = system: DMS-273
HOP-18 = system: HOP-18
XF498 = system: XF498
LXFL 529 = system: LXFL 529
RXF 631 = system: RXF 631
MDA-MB-435 = system: MDA-MB-435
T47D = system: T47D
BT-549 = system: BT-549

Row | Compound | GI50 (DMS-114) | GI50 (DMS-273) | GI50 (HOP-18) | GI50 (XF498) | GI50 (LXFL 529) | GI50 (RXF 631) | GI50 (MDA-MB-435) | GI50 (T47D) | GI50 (BT-549)
1 | Cc1c2ccncc2cc2c1[nH]c1ccccc12 | 5.27 µM (inactive) | 1.19 µM (inactive) | 0.789 µM (active) | 1.12 µM (active) |  |  |  |  | 
2 | CCN(CC)CCCC(C)Nc1cc(-c2ccccc2)nc2cc(OC)ccc12 (stereo unspecified) | 6.68 µM (inactive) |  |  |  | 6.28 µM (inactive) |  |  |  | 
3 | COc1nc2[nH]ccc2c(=O)[nH]1 | > 100 µM (inactive) |  | 42.7 µM (inactive) |  | > 100 µM (inactive) | > 100 µM (inactive) |  |  | 
4 | CCOC(=O)COc1cccc2occc(=O)c12 | > 100 µM (inactive) | > 100 µM (inactive) |  | > 100 µM (inactive) | > 100 µM (inactive) |  |  |  | 
5 | O=C(NC(COC(=O)C(Cc1ccccc1)NC(=O)c1ccccc1)Cc1ccccc1)c1ccccc1 (stereo unspecified) |  |  |  |  |  |  | > 50 µM (inactive) |  | 
6 | CCC(C)(C)n1c(C)nc2c1C(=O)c1ccccc1C2=O |  | 11.8 µM (inactive) |  | 16.8 µM (inactive) | 13.9 µM (inactive) |  |  |  | 
7 | CC1(C)OP(=O)(O)CC1=O |  |  |  |  |  |  | > 100 µM (inactive) | > 100 µM (inactive) | 
8 | COC1OC(=O)[C@H]2O[N+]([O-])=C(C)[C@@H]12 (stereo partly specified) | > 100 µM (inactive) |  | > 100 µM (inactive) | > 100 µM (inactive) |  |  |  |  | 
9 | N#CC1(C#N)C2C=CC(C3CCC=C32)C1(C#N)C#N (stereo unspecified) |  |  |  |  |  |  | > 10 µM (inactive) | > 5.33 µM (inactive) | > 10 µM (inactive)
10 | OCC1OC(n2ccc3cnccc32)CC1O (stereo unspecified) | > 100 µM (inactive) | > 100 µM (inactive) | > 100 µM (inactive) |  | > 100 µM (inactive) |  |  |  | 
11 | Cc1cn(Cc2cnnn2CC2OC(n3cc(C)c(=O)[nH]c3=O)CC2O)c(=O)[nH]c1=O (stereo unspecified) |  |  |  |  |  |  | > 100 µM (inactive) | > 100 µM (inactive) | > 100 µM (inactive)
12 | CN1C(=O)CN=C(c2ccccc2F)c2cc(N=C=S)ccc21 |  |  |  |  |  |  | 35.9 µM (inactive) | 56.8 µM (inactive) | 58.5 µM (inactive)
13 | O=c1c(-c2ccccc2)c(SCCCN2CCCCC2)n(-c2ccccc2)c(=S)n1-c1ccccc1 |  |  |  |  |  |  | 17.7 µM (inactive) |  | 18 µM (inactive)
14 | FC(F)(F)C(C1=NC(C(F)(F)F)(C(F)(F)F)N=C(N2CCOCC2)O1)C(F)(F)F |  |  |  |  |  |  | 15.3 µM (inactive) | 23.4 µM (inactive) | 17.9 µM (inactive)
15 | Cc1ccc([N+](=O)[O-])cc1NC(=O)C(=O)C(C(=O)c1ccccc1F)C1OC(=O)c2ccccc21 (stereo unspecified) | 16.5 µM (inactive) | 36.3 µM (inactive) |  | 81.5 µM (inactive) | 34 µM (inactive) | 32.7 µM (inactive) |  |  | 
16 | CCOC(=O)CSc1c(C(=O)OCC)c(=O)n(-c2ccccc2)c(=S)n1-c1ccccc1 |  |  |  |  |  |  | 41.6 µM (inactive) | > 100 µM (inactive) | 8.49 µM (inactive)
17 | CC(=O)OCC1OC(n2c(-c3ccc(Cl)cc3)cc(-c3ccccc3)c(C#N)c2=S)C(OC(C)=O)C(OC(C)=O)C1OC(C)=O (stereo unspecified) |  |  |  |  |  |  | 12.7 µM (inactive) | 18.7 µM (inactive) | 5.01 µM (inactive)
18 | NC1CCCCC1.O=P(O)(O)C(CSc1ccccc1)P(=O)(O)O | > 100 µM (inactive) | > 100 µM (inactive) | > 100 µM (inactive) | > 100 µM (inactive) |  |  |  |  | 
19 | N#CC1(CCCI)CCCC1 | 3.72 µM (inactive) | 4.55 µM (inactive) | 13.5 µM (inactive) | 18.6 µM (inactive) | 23.2 µM (inactive) | 1.34 µM (inactive) |  |  | 
20 | CC1(C)COC2C(N(Cc3ccccc3)Cc3ccccc3)C(=O)N21 (stereo unspecified) |  |  | 50 µM (inactive) |  | 51.3 µM (inactive) |  |  |  | 
21 | CN(C)c1n/c(=N/c2ccc(/N=c3\nc(N(C)C)ss3)cc2)ss1 | 16.7 µM (inactive) | 28.8 µM (inactive) | 54 µM (inactive) |  | > 33.5 µM (inactive) | 22 µM (inactive) |  |  | 
22 | N#Cc1c(-c2ccccc2)cn(C(=O)c2ccccc2)c1N |  |  |  |  |  |  | > 100 µM (inactive) |  | 
23 | CCOC(=O)Nc1ccc(S(=O)(=O)NCCCl)cc1.CCOC(=O)Nc1ccc(S(=O)(=O)NCCCl)cc1.O=C(O)c1ccc(/N=N/Cl)cc1O | > 100 µM (inactive) | > 100 µM (inactive) | > 100 µM (inactive) |  | > 100 µM (inactive) | > 100 µM (inactive) |  |  | 
24 | COc1ccc(C2COc3cc(O)c(O)cc3C2)cc1 (stereo unspecified) |  | 33.3 µM (inactive) | 29.9 µM (inactive) | 7.28 µM (inactive) |  |  |  |  | 
25 | C=CCNC(=S)N/N=C1\C(=O)Nc2ccc([N+](=O)[O-])cc21 |  |  |  |  |  |  | 89.3 µM (inactive) | 25.5 µM (inactive) | 52.4 µM (inactive)
